Measured values published in US20160143877A1, “COMPOSITION FOR SUPPRESSING ADIPOCYTE DIFFERENTIATION, FOR REDUCING FAT ACCUMULATION AND/OR FOR PROMOTING ADIPONECTIN SECRETION AND USAGE FOR SAID COMPOSITION” (PUBLIC UNIVERSITY CORPORATION OSAKA CITY UNIVERSITY, priority 2013, published 2016).

Key:
[1] = test system: various cell lines used in Examples; test: Toxicity and viability check of the sesaminol solution on the cell lines used; type: cell-based; details: sesaminol solution (3.0 mg/ml in DMSO) as used in Examples
Protocol: The highly concentrated sesaminol solution was dissolved in dimethyl sulphoxide (DMSO) to prepare a sesaminol solution (3.0 mg/ml) to be used in Examples.

3T3-L1 adipocytes [2] = test: Adiponectin expression level in adipocytes by SDS-PAGE and western blotting; type: cell-based, Mouse; details: sesaminol 0.5 or 1.0 μg/ml added to differentiated adipocytes, three days
Protocol: Various physiologically active adipocytokines are secreted from adipocytes. Among these adipocytokines, adiponectin is known to improve insulin resistance and prevent atherosclerosis. In the present Example, the profile of adiponectin secretion after addition of sesaminol to adipocytes was analysed by SDS-PAGE and western blotting.
In the same manner as in (1-1) in Example 1, preadipocyte 3T3-L1 cells were cultured until they reached 80 to 90% confluence. […]
The sesaminol solution was added so as to obtain the final concentration of sesaminol of 0.5 or 1.0 μg/ml in adipocytes. […] An aliquot of the collected supernatant was subjected to protein quantification using Serva Blue G (Serva Electrophoresis GmbH) based on the absorbance at 595 nm in order to calculate the amount of sample applied to electrophoresis.
Equal volumes of the supernatant containing cell lysate and a sample buffer were mixed to prepare a sample for electrophoresis. […] The membrane was then subjected to reaction in a DAB solution (3,3′-diaminobenzidine tetrahydrochloride (10 mg), distilled water (1 ml), 0.2 M PBS (50 ml) and 30% H2O2 (100 μl)), dried and then subjected to quantification of intensity of bands using Scion Image (free software: Scion). The ratio of the band intensity of adiponectin relative to the band intensity of β-actin was calculated for the samples.

3T3-L1 cells [3] = test: Adipocyte differentiation: TG accumulation by Oil red 0 staining, sesaminol added during differentiation induction; type: cell-based, Mouse; details: read after Day 8
Protocol: Preadipocytes, when differentiated into adipocytes, intracellularly accumulate lipid droplets containing TG and the like. In the present Example, sesaminol was added to preadipocyte during induction of differentiation and intracellular TG after completion of induction was stained with an azo dye, Oil red 0, to evaluate an effect of sesaminol on adipocyte differentiation. Mouse fibroblast cell line 3T3-L1 (Japan Health Sciences Foundation) were used as preadipocytes. 3T3-L1 cells were inoculated at a concentration of 1.0×10^5 to 1.0×10^6 cells/ml and cultured until they reached 80 to 90% confluence in a 5% CO2 incubator at 37° C. The culture medium used was Dulbecco's modified Eagle's medium (DMEM: Nissui Pharmaceutical Co., Ltd.) containing 10% fetal bovine serum (FBS: Nichirei Biosciences, Inc.), penicillin (50 units/ml, Meiji Co., Ltd.) and streptomycin ([…], Meiji Co., Ltd.). […] After washing, cells were analysed under a microscope (OLYMPUS IX-70: Olympus Corporation) and photographed.

3T3-L1 adipocytes [4] = test: Fat (TG) accumulation in differentiated adipocytes, Oil red 0 staining and absorbance at 520 nm; type: cell-based, Mouse; details: sesaminol 0.5 or 1.0 μg/ml added to differentiated adipocytes, three days
Protocol: In the same manner as in (1-1) in Example 1, preadipocyte 3T3-L1 cells were cultured until they reached 80 to 90% confluence. Then the medium was replaced with DMEM containing differentiation inducing agents which were bovine insulin (0.2 μM, Wako Pure Chemical Industries, Ltd.), dexamethasone (0.25 μM, Wako Pure Chemical Industries, Ltd.) and 3-isobutyl-1-methylxanthine (0.5 mM, Wako Pure Chemical Industries, Ltd.) (this is referred to as “Day 0 of differentiation induction”). After two days, the medium was replaced with DMEM containing only insulin (0.2 μM). Thereafter, the medium was replaced with fresh DMEM every two days and induction of differentiation was completed on Day 8 of differentiation induction to obtain adipocytes.
To the obtained adipocytes, the sesaminol solution was added so as to obtain the final concentration of sesaminol of 0.5 or 1.0 μg/ml. As a control, cells were cultured without addition of the sesaminol solution. […] Cells were analysed under a microscope (OLYMPUS IX-70: Olympus Corporation) and photographed. […] After microscopic observation, cells were added with isopropanol (3 ml) to extract Oil red 0 staining solution and the resulting extract was measured for absorbance at 520 nm. According to the measured values, TG accumulations in cells were compared. […]

3T3-L1 cells [5] = test: Adipocyte differentiation: glycerol-3-phosphate dehydrogenase (GPDH) activity of cells after differentiation induction; type: cell-based, Mouse; details: sesaminol 0.5 or 1.0 μg/ml during differentiation induction; ** p<0.01 vs control
Protocol: GPDH is a rate-limiting enzyme of triacylglycerol (TG; also referred to as triglyceride) synthesis in adipocytes. […] Thus GPDH activity of cells after differentiation induction was measured according to the method of Wise and Green (Wise, L. S. and Green, H., (1979) Participation of one isozyme of cytosolic glycerophosphate dehydrogenase in the adipose conversion of 3T3 cells. The Journal of Biological Chemistry, 254, 273-275). Cells used for the GPDH assay were obtained in the same manner as described in (1-1) and (1-2). As a control, cells were differentiated without addition of the sesaminol solution.
Adipocytes derived from 3T3-L1 cells on or after Day 8 of induction were washed twice with PBS. Cells were added with a buffer for enzymatic extraction (100 mM triethanolamine, 2.5 mM EDTA) (300 μl) and collected using a cell scraper. […]
To a test tube containing the buffer for enzymatic extraction (2800 μl) which was maintained at 28° C. in a water bath, 2-mercaptoethanol (final concentration: 0.1 mM), NADH (final concentration: 0.12 mM), dihydroxyacetone phosphate (DHAP: SIGMA) (final concentration: 0.2 mM) and a measurement sample (50 μl) were added and the absorbance was measured over 3 minutes at 340 nm. GPDH activity was calculated using an extinction coefficient of NADH (6.22 mM^−1cm^−1) on the basis of the change of absorbance per minute (NADH variation). […]

SMILES: Oc1cc2c(cc1C1OCC3C(c4ccc5c(c4)OCO5)OCC13)OCO2 (stereo not shown) [sesaminol]
- toxicity to and effect on viability of cell lines [1]: not toxic to and did not affect viability
- adiponectin expression level (band intensity ratio adiponectin/β-actin, control = 1, FIG. 5) (3T3-L1 adipocytes [2]): significantly enhanced with an increase in the amount of sesaminol added
- cells that did not contain stained lipid droplets (Oil red 0, FIG. 1) (3T3-L1 cells [3]; sesaminol 0.5 μg/ml added on Days 0, 2, 4 and 6 of differentiation induction): many cells
- cells that did not contain stained lipid droplets (Oil red 0, FIG. 1) (3T3-L1 cells [3]; sesaminol 1.0 μg/ml added on Days 0, 2, 4 and 6 of differentiation induction): almost all the cells
- size of lipid droplets in adipocytes (FIG. 3) (3T3-L1 adipocytes [4]): tend to decrease the size compared to the control
- TG accumulation in adipocytes (FIG. 4, percent of control) (3T3-L1 adipocytes [4]; * p<0.05 vs control): decreased TG accumulation
- GPDH activity of cells after differentiation induction (FIG. 2, percent of control) (3T3-L1 cells [5]): decreased with an increase in the amount of sesaminol added
